Source: patent publication US20110189308A1, “METHODS TO TREAT NEURODEGENERATIVE CONDITIONS OR DISEASES BY TARGETING COMPONENTS OF A PTEN SIGNALING PATHWAY” (priority 2008, published 2011)

Tested on: primary cortical cultures from (Atg7^flox/flox) mice
Assay: Process length in primary cortical cultures from Atg7 flox/flox mice transfected with Cre plasmid, with PI3K inhibitors
Format: cell-based, mouse
Details: FIG. 16D; 10 μM Wortmannin or 50 μM LY294002; n>45 neurons per group; mean±S.E.
Excerpt: FIGS. 16A-16D. Primary midbrain neuronal cultures from autophagy-deficient Dat^Cre/+Atg7^flox/flox mice display prolonged neurites. FIG. 16A, Elongated processes in TH-positive neurons in primary midbrain cultures from autophagy-deficient (Dat^Cre/+Atg7^flox/flox) mice relative to controls (Dat^Cre/+Atg7^flox/wild). FIG. 16B, The elongated process phenotype is also apparent in primary cortical cultures from (Atg7^flox/flox) mice transfected with Cre-recombinase encoding plasmid (along with GFP plasmid) compared to primary neurons transfected with GFP plasmid alone. […] FIG. 16C, Quantitation of process length as in (A). Dat^Cre/+Atg7^flox/wild versus Dat^Cre/+Atg7^flox/flox; 0.933±0.098 mm versus 1.704±0.139 mm, p<0.01. n>49 neurons per group in at least three separate independent experiments. FIG. 16D, quantification of data as in (C). Dat^Cre/+Atg7^flox/wild versus Dat^Cre/+Atg7^flox/flox; 0.428±0.036 mm versus 0.721±0.073 mm (DMSO), 0.198±0.018 mm versus 0.217±0.021 mm (Wortmannin, WM), and 0.158±0.015 mm versus 0.176±0.018 mm (LY294002, LY). n>45 neurons per group in at least three separate independent experiments. Bar, 50 μm.**, P<0.01.
Cell Culture. For midbrain culture, midbrain tissues were dissected from newborn mice (postnatal 0 day). The tissues were minced and digested in isolation medium containing 0.25% trypsin and ascorbic acid at 37° C. for 30 min. After the incubation, the digestion was stopped by 3% fetal bovine serum and 0.25% Dnase I. The tissues were triturated 20 times by glass-pipette and filtrated by cell strainer. They were centrifuged at 1,200 rpm for 5 min, and the supernatants were removed. The cells were suspended in plating medium containing 10% fetal bovine serum and plated on poly-D-lysine and laminin-coated 24-well plates. On the next day, the plating medium was replaced by culture medium containing 1% fetal bovine serum and antimitotic agent. The cells were kept on 37° C. for three more days. For cortical culture, cortical tissues were dissected from newborn mice (postnatal 0 day). The tissues were minced and digested in isolation medium containing 0.25% trypsin at 37° C. for 30 min. After the incubation, the digestion was stopped by 3% fetal bovine serum and 0.25% Dnase I. The tissues were triturated 20 times by glass-pipet and filtrated by cell strainer. They were centrifuged at 1,200 rpm for 5 min, and the supernatants were removed. The cells were suspended in plating medium containing 10% fetal bovine serum and plated on poly-D-lysine and laminin-coated 24-well plates. On second day, the cells were transfected with GFP or Cre expression plasmids. To transfect the plasmids, the cells were washed in 500 μl DMEM and added 30 μl of DNA/Ca/Phosphate complex (2 μg DNA/3.75 μl 1M CaCl2/15 μl 2× HBSS). […]

Structure (SMILES) | process length, Atg7-deficient neurons (Dat^Cre/+Atg7^flox/flox) [mm] | process length, control neurons (Dat^Cre/+Atg7^flox/wild) [mm]
O=c1cc(N2CCOCC2)oc2c(-c3ccccc3)cccc12 [LY294002] | 0.176±0.018 | 0.158±0.015
COC[C@H]1OC(=O)c2coc3c2[C@@]1(C)C1=C(C3=O)[C@@H]2CCC(=O)[C@@]2(C)C[C@H]1OC(C)=O [Wortmannin] | 0.217±0.021 | 0.198±0.018
